Test results from ChEMBL document CHEMBL1139199 (Bioorg Med Chem Lett, 2007).

Assays:
[1] = Plasma clearance in rat at 1 mg/kg, iv or 2 mg/kg, po; format: ADME, organism-based
[2] = Oral bioavailability in rat at 2 mg/kg, po; format: ADME, organism-based; conditions: in vivo
Dipeptidyl peptidase 2 = Dipeptidyl peptidase 2 (Homo sapiens, UniProt Q9UHL4); test: Inhibition of human recombinant QPP expressed in SF9 cells
Dipeptidyl peptidase 9 = Dipeptidyl peptidase 9 (Homo sapiens, UniProt Q86TI2); test: Inhibition of human DPP9 after 15 mins by continuous fluorescent assay
Dipeptidyl peptidase 8 = Dipeptidyl peptidase 8 (Homo sapiens, UniProt Q6V1X1); test: Inhibition of human DPP8 after 15 mins by continuous fluorescent assay
[3] = Oral bioavailability in dog at 2 mg/kg, po; format: ADME, organism-based, Canis lupus familiaris; conditions: in vivo
[4] = Plasma clearance in dog at 1 mg/kg, iv or 2 mg/kg, po; format: ADME, organism-based, Canis lupus familiaris
Mus musculus = organism: Mus musculus; test: Reduction of blood glucose excursion in mouse by OGTT; format: functional, organism-based
[5] = molecular target: Voltage-gated inwardly rectifying potassium channel KCNH2 (Homo sapiens, UniProt Q12809); test: Inhibition of cardiac hERG
Sequence of Voltage-gated inwardly rectifying potassium channel KCNH2 (Q12809 whole entry): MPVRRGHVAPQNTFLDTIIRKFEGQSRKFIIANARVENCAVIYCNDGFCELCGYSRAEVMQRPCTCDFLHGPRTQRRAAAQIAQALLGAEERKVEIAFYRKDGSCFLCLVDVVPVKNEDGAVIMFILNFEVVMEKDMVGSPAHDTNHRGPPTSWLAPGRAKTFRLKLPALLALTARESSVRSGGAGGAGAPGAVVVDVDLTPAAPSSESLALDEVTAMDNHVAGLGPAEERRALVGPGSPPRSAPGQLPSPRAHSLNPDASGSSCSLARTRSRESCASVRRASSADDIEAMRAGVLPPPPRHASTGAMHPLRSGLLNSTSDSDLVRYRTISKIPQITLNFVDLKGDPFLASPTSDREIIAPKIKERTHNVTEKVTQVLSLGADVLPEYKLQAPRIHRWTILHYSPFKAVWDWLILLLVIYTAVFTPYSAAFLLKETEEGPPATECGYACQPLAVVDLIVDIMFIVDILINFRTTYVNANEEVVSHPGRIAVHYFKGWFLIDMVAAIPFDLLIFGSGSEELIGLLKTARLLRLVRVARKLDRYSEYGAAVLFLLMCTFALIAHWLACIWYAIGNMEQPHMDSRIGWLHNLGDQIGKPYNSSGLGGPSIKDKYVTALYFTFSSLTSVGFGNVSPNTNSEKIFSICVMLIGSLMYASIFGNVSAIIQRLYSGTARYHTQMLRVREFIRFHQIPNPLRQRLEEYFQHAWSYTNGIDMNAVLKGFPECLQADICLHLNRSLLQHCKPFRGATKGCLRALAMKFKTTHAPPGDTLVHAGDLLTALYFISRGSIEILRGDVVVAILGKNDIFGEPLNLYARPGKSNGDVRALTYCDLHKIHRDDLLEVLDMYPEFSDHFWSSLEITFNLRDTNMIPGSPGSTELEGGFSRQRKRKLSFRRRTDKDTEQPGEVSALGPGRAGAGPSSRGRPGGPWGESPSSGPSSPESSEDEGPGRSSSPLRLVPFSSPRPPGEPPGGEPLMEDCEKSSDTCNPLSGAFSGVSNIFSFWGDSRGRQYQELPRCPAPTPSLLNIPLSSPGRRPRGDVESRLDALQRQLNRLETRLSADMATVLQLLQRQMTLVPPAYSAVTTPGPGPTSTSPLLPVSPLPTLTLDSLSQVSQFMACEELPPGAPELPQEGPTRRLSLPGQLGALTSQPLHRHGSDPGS

Sequence of Dipeptidyl peptidase 9 (Q86TI2 whole entry): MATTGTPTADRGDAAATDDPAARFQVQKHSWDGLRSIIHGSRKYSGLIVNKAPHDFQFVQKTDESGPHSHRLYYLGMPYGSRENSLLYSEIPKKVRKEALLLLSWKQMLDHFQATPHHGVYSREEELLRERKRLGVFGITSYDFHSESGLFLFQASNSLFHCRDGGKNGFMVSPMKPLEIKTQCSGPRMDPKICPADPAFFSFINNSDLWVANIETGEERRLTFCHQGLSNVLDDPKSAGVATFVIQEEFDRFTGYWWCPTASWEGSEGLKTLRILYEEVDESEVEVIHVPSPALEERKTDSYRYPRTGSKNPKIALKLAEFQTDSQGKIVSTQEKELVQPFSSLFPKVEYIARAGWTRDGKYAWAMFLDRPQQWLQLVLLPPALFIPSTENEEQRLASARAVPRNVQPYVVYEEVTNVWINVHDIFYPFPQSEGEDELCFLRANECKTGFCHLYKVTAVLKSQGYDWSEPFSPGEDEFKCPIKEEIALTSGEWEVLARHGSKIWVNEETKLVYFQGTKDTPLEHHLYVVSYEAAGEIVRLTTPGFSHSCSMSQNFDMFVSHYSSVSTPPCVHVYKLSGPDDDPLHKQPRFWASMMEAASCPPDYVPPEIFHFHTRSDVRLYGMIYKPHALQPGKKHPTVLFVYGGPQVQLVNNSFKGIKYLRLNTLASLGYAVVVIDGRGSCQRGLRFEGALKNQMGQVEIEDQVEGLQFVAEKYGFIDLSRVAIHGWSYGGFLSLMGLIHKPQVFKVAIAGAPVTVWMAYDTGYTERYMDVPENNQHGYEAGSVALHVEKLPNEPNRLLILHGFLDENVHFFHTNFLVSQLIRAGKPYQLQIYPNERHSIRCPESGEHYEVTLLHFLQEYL
Sequence of Dipeptidyl peptidase 8 (Q6V1X1 whole entry): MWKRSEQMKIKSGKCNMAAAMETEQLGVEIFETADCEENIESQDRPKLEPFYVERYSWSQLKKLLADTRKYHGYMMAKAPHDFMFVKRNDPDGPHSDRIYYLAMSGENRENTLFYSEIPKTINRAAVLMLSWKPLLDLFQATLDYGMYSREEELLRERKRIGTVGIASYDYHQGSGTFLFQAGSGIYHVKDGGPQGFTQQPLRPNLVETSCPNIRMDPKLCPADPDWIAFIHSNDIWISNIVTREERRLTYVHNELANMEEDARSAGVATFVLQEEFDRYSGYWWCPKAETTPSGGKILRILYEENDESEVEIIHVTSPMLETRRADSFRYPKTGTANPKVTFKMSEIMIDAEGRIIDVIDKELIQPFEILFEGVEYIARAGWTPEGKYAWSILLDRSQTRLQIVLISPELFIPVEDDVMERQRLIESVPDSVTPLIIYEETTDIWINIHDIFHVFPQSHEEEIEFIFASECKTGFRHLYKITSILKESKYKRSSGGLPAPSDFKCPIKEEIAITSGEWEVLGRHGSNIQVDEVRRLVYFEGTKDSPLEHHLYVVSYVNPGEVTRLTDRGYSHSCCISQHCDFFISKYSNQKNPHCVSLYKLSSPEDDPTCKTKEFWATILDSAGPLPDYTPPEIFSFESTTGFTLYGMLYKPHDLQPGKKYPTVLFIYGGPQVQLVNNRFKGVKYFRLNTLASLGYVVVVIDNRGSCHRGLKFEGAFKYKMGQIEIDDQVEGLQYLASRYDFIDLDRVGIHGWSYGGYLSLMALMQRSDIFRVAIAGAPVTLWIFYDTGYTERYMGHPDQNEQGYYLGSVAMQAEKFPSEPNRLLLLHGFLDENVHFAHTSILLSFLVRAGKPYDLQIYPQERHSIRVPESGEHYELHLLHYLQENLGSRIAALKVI

Row | Structure (SMILES) | clearance [1] | bioavailability [2] | IC50 (Dipeptidyl peptidase 9) | IC50 (Dipeptidyl peptidase 8) | other results
1 | C[C@@H](C1CCC(N(C)C(=O)C2CC2)CC1)[C@H](N)C(=O)N1CC[C@H](F)C1.Cl (some centres undefined) | 49 mL/min/kg | 46% |  |  | 
2 | Cc1ccc(C(=O)N(C)c2ccc([C@H](C(=O)N(C)C)[C@H](N)C(=O)N3CC[C@H](F)C3)cc2)cc1 |  |  | > 100 µM | > 100 µM | IC50 (Dipeptidyl peptidase 2): > 100 µM
3 | CC(=O)N(C)C1CCC([C@H](C)[C@H](N)C(=O)N2CC[C@H](F)C2)CC1.Cl (some centres undefined) | 42 mL/min/kg | 56% | > 100 µM |  | bioavailability [3]: 83%; clearance [4]: 4.4 mL/min/kg; Activity (Mus musculus): Dose-dependent effect; IC50 [5]: > 90 µM
4 | CN(C)C(=O)[C@@H](c1ccc(N(C)C(=O)c2ccc(F)cc2)cc1)[C@H](N)C(=O)N1CC[C@H](F)C1.O=C(O)C(F)(F)F | 73 mL/min/kg | 6% | > 100 µM | > 100 µM | IC50 (Dipeptidyl peptidase 2): > 100 µM; IC50 [5]: > 90 µM
5 | CN(C)C(=O)[C@@H](C1CCC(N(C)C(=O)c2cccc(F)c2)CC1)[C@H](N)C(=O)N1CC[C@H](F)C1.Cl (some centres undefined) | 27 mL/min/kg | 25% | > 100 µM | > 100 µM | IC50 [5]: > 90 µM
6 | C[C@@H](C1CCC(N(C)C(=O)c2cccc(F)c2)CC1)[C@H](N)C(=O)N1CC[C@H](F)C1.Cl (some centres undefined) | 40 mL/min/kg | 72% |  |  | 
7 | CC(=O)N(C)C1CCC([C@H](C(=O)N(C)C)[C@H](N)C(=O)N2CC[C@H](F)C2)CC1.Cl (some centres undefined) | 18 mL/min/kg | 3% | > 100 µM | > 100 µM | 
8 | CN(C)C(=O)[C@@H](C1CCC(NS(=O)(=O)c2ccc(F)cc2F)CC1)[C@H](N)C(=O)N1CC[C@H](F)C1 (some centres undefined) |  |  | > 100 µM | > 100 µM | 
9 | CC(=O)N(C)c1ccc([C@H](C)[C@H](N)C(=O)N2CC[C@H](F)C2)cc1 |  |  | > 100 µM | > 100 µM | 
10 | C[C@@H](c1ccc(N(C)C(=O)c2ccc(F)cc2)cc1)[C@H](N)C(=O)N1CC[C@H](F)C1 |  |  | > 100 µM | > 100 µM | 
11 | CC(=O)Nc1ccc([C@H](C)[C@H](N)C(=O)N2CC[C@H](F)C2)cc1 |  |  | > 100 µM |  | 
12 | CN(C)C(=O)[C@@H](C1CCC(NS(=O)(=O)c2ccc(OC(F)(F)F)cc2)CC1)[C@H](N)C(=O)N1CC[C@H](F)C1 (some centres undefined) |  |  | > 100 µM | > 100 µM | 
13 | CC(=O)N(C)c1ccc([C@H](C(=O)N(C)C)[C@H](N)C(=O)N2CC[C@H](F)C2)cc1 |  |  | > 100 µM | > 100 µM | IC50 (Dipeptidyl peptidase 2): > 100 µM
14 | CN(C)C(=O)[C@@H](c1ccc(NS(=O)(=O)c2ccccc2)cc1)[C@H](N)C(=O)N1CC[C@H](F)C1 |  |  | > 100 µM | > 100 µM | 
15 | Cc1ccc(S(=O)(=O)N(C)c2ccc([C@H](C(=O)N(C)C)[C@H](N)C(=O)N3CC[C@H](F)C3)cc2)cc1 |  |  | > 100 µM | > 100 µM | IC50 (Dipeptidyl peptidase 2): > 100 µM
16 | CC(=O)Nc1ccc([C@H](C(=O)N(C)C)[C@H](N)C(=O)N2CC[C@H](F)C2)cc1 |  |  | > 100 µM |  | IC50 (Dipeptidyl peptidase 2): > 100 µM
17 | Cl.N[C@H](C(=O)N1CC[C@H](F)C1)C1CCC(NS(=O)(=O)c2ccc(F)cc2F)CC1 (some centres undefined) | 24 mL/min/kg |  |  |  | 
